Measured values: PubChem BioAssay AID248 (DTP/NCI, 2004)
Several values for one entry are separate records, joined by “and”; a condition that tells them apart may be missing. Identical values can stand only once. Toxic doses and inconclusive results are not listed. Rule as the data show it: active = T/C of 150% or more; inactive = T/C below 125%.

System: L1210 leukemia ip in BDF1 mice, survival T/C
Assay: NCI In Vivo Anticancer Drug Screen. Data for tumor model L1210 Leukemia (intraperitoneal) in B6D2F1 (BDF1) mice
Settings: endpoint: mean survival time, higher = longer survival
Outline: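 Each compound was tested against a transplantable tumor grown in mice. The endpoint was survival, with treated animals benchmarked against vehicle controls as a simple ratio.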

[1] = dose: 100.0 mg/kg/injection, schedule: Q04DX002 (ip), vehicle: saline with Tween-80
[2] = dose: 200.0 mg/kg/injection, schedule: Q04DX002 (ip), vehicle: saline with Tween-80
[3] = dose: 400.0 mg/kg/injection, schedule: Q04DX002 (ip), vehicle: saline with Tween-80
[4] = dose: 100.0 mg/kg/injection, schedule: Q04DX003 (ip), vehicle: saline
[5] = dose: 200.0 mg/kg/injection, schedule: Q04DX003 (ip), vehicle: saline
[6] = dose: 400.0 mg/kg/injection, schedule: Q04DX003 (ip), vehicle: saline
[7] = dose: 100.0 mg/kg/injection, schedule: Q04DX002 (ip), vehicle: Klucel (hydroxypropylcellulose) (HPC)
[8] = dose: 200.0 mg/kg/injection, schedule: Q04DX002 (ip), vehicle: Klucel (hydroxypropylcellulose) (HPC)
[9] = dose: 400.0 mg/kg/injection, schedule: Q04DX002 (ip), vehicle: Klucel (hydroxypropylcellulose) (HPC)
[10] = dose: 50.0 mg/kg/injection, schedule: Q04DX002 (ip), vehicle: Klucel (hydroxypropylcellulose) (HPC)
[11] = dose: 100.0 mg/kg/injection, schedule: Q01DX001 (ip), vehicle: Klucel (hydroxypropylcellulose) (HPC)
[12] = dose: 200.0 mg/kg/injection, schedule: Q01DX001 (ip), vehicle: Klucel (hydroxypropylcellulose) (HPC)
[13] = dose: 400.0 mg/kg/injection, schedule: Q01DX001 (ip), vehicle: Klucel (hydroxypropylcellulose) (HPC)
[14] = dose: 100.0 mg/kg/injection, schedule: Q01DX009 (ip), vehicle: Klucel (hydroxypropylcellulose) (HPC)
[15] = dose: 200.0 mg/kg/injection, schedule: Q01DX009 (ip), vehicle: Klucel (hydroxypropylcellulose) (HPC)
[16] = dose: 400.0 mg/kg/injection, schedule: Q01DX009 (ip), vehicle: Klucel (hydroxypropylcellulose) (HPC)
[17] = dose: 100.0 mg/kg/injection, schedule: Q04DX003 (ip), vehicle: Klucel (hydroxypropylcellulose) (HPC)

Measured: T/C

COc1ccc(C(=O)Nc2cccc(C(F)(F)F)c2)cc1
inactive: dose: 100.0 mg/kg/injection, schedule: Q01DX001 (ip), vehicle: saline with Tween-80 97 % of control | dose: 100.0 mg/kg/injection, schedule: Q01DX009 (ip), vehicle: saline with Tween-80 100 % of control | [1] 100 % of control and 105 % of control | dose: 200.0 mg/kg/injection, schedule: Q01DX001 (ip), vehicle: saline with Tween-80 100 % of control | dose: 200.0 mg/kg/injection, schedule: Q01DX009 (ip), vehicle: saline with Tween-80 121 % of control | [2] 100 % of control and 108 % of control | dose: 400.0 mg/kg/injection, schedule: Q01DX001 (ip), vehicle: saline with Tween-80 98 % of control | dose: 400.0 mg/kg/injection, schedule: Q01DX009 (ip), vehicle: saline with Tween-80 118 % of control | [3] 107 % of control and 90 % of control

Cc1ncc(CO)c(CO)c1O
inactive: [4] 101 % of control | [5] 100 % of control | [6] 96 % of control

O=C1c2ccccc2C(=O)c2c(O)c(Cc3ccccc3)cc(O)c21
inactive: [4] 105 % of control | [5] 97 % of control | [6] 97 % of control

C#CP(CCCC)CCCC
inactive: dose: 25.0 mg/kg/injection, schedule: Q04DX002 (ip), vehicle: saline with Tween-80 97 % of control | dose: 50.0 mg/kg/injection, schedule: Q04DX002 (ip), vehicle: saline with Tween-80 91 % of control | [1] 95 % of control and 102 % of control

O=C(NCc1ccc(Cl)cc1)NC1CCCCC1
inactive: [7] 100 % of control | [8] 100 % of control | [9] 106 % of control

Cc1ccc(OCCOc2ccc(N)cc2)cc1
inactive: dose: 100.0 mg/kg/injection, schedule: Q04DX003 (ip), vehicle: alcohol 92 % of control | dose: 200.0 mg/kg/injection, schedule: Q04DX003 (ip), vehicle: alcohol 95 % of control | dose: 400.0 mg/kg/injection, schedule: Q04DX003 (ip), vehicle: alcohol 90 % of control

CN1CN(c2ccccc2)C2(CCN(CCCC3Cc4ccccc4O3)CC2)C1=O (stereo not given)
inactive: dose: 12.0 mg/kg/injection, schedule: Q01DX001 (ip), vehicle: Klucel (hydroxypropylcellulose) (HPC) 95 % of control | dose: 25.0 mg/kg/injection, schedule: Q01DX001 (ip), vehicle: Klucel (hydroxypropylcellulose) (HPC) 98 % of control | dose: 50.0 mg/kg/injection, schedule: Q01DX001 (ip), vehicle: Klucel (hydroxypropylcellulose) (HPC) 96 % of control

Cc1cc(C)c(S(N)(=O)=O)c(C)c1
inactive: [10] 94 % of control | [7] 107 % of control | [8] 94 % of control

Nc1ccc(S(=O)(=O)NCCO)cc1[N+](=O)[O-]
inactive: [11] 103 % of control | dose: 100.0 mg/kg/injection, schedule: Q01DX009 (ip), vehicle: saline sonified 96 % of control | [12] 106 % of control | dose: 200.0 mg/kg/injection, schedule: Q01DX009 (ip), vehicle: saline sonified 102 % of control | [13] 105 % of control | dose: 400.0 mg/kg/injection, schedule: Q01DX009 (ip), vehicle: saline sonified 93 % of control

CO/N=C(\N)Oc1c(C)cccc1C
inactive: [14] 107 % of control | [15] 96 % of control | [16] 103 % of control

Cc1cc(N(CCCl)CCCl)ccc1C=NC1CCCC1
inactive: dose: 100.0 mg/kg/injection, schedule: Q01DX001 (ip), vehicle: carboxymethylcellulose (CMC) 102 % of control | dose: 200.0 mg/kg/injection, schedule: Q01DX001 (ip), vehicle: carboxymethylcellulose (CMC) 105 % of control | dose: 400.0 mg/kg/injection, schedule: Q01DX001 (ip), vehicle: carboxymethylcellulose (CMC) 118 % of control

C[N+](C)(C)CCSc1ccc2c3c(cccc13)C(=O)c1ccccc1-2
inactive: dose: 12.5 mg/kg/injection, schedule: Q04DX002 (ip), vehicle: saline 107 % of control | dose: 25.0 mg/kg/injection, schedule: Q04DX002 (ip), vehicle: saline 104 % of control | dose: 50.0 mg/kg/injection, schedule: Q04DX002 (ip), vehicle: saline 86 % of control

CCC[CH2][Pb]([CH2]CCC)([CH2]CCC)[N](C#N)C#N
inactive: dose: 25.0 mg/kg/injection, schedule: Q04DX002 (sc), vehicle: olive oil, sesame oil, peanut oil 101 % of control | dose: 50.0 mg/kg/injection, schedule: Q04DX002 (sc), vehicle: olive oil, sesame oil, peanut oil 101 % of control | dose: 100.0 mg/kg/injection, schedule: Q04DX002 (sc), vehicle: olive oil, sesame oil, peanut oil 96 % of control and 97 % of control

CCOC(=O)c1ccc(Nc2sc(C(=O)c3ccccc3)c(N)c2C#N)cc1
inactive: [1] 120 % of control | [2] 92 % of control | [3] 89 % of control

O=S1C=C(c2ccc(Cl)cc2)OC1 (stereo not given)
inactive: dose: 12.0 mg/kg/injection, schedule: Q01DX001 (ip), vehicle: saline 102 % of control | dose: 25.0 mg/kg/injection, schedule: Q01DX001 (ip), vehicle: saline 107 % of control | dose: 50.0 mg/kg/injection, schedule: Q01DX001 (ip), vehicle: saline 107 % of control

COC(=O)CCC(=O)c1ccc(OC)cc1
inactive: [14] 94 % of control | [15] 100 % of control | [16] 96 % of control

Nc1nncc(-c2cnnc(N)n2)n1
inactive: [10] 111 % of control | [7] 104 % of control | [8] 111 % of control

O=S(=O)(Cl)c1ccccc1S(=O)(=O)Cl
inactive: [17] 95 % of control | dose: 200.0 mg/kg/injection, schedule: Q04DX003 (ip), vehicle: Klucel (hydroxypropylcellulose) (HPC) 93 % of control | dose: 400.0 mg/kg/injection, schedule: Q04DX003 (ip), vehicle: Klucel (hydroxypropylcellulose) (HPC) 86 % of control

Cc1ccc(N2C(=O)CSC2=S)cc1F
inactive: [7] 96 % of control | [8] 104 % of control | [9] 101 % of control

CCOC(=O)CCc1c(C(=O)OCC)[nH]c(C)c1C(=O)C(=O)OC
inactive: dose: 25.0 mg/kg/injection, schedule: Q04DX003 (ip), vehicle: Klucel (hydroxypropylcellulose) (HPC) 101 % of control | dose: 50.0 mg/kg/injection, schedule: Q04DX003 (ip), vehicle: Klucel (hydroxypropylcellulose) (HPC) 98 % of control | [11] 95 % of control | [17] 103 % of control | [12] 93 % of control | [13] 90 % of control

CCN(CC)C(C(=O)Nc1ccccc1)C(=O)Nc1ccccc1
inactive: dose: 100.0 mg/kg/injection, schedule: Q04DX003 (ip), vehicle: saline with Tween-80 92 % of control | dose: 200.0 mg/kg/injection, schedule: Q04DX003 (ip), vehicle: saline with Tween-80 94 % of control | dose: 400.0 mg/kg/injection, schedule: Q04DX003 (ip), vehicle: saline with Tween-80 90 % of control
